Assay results taken from PubChem BioAssay AID212 (DTP/NCI, 2004).
Values joined by “and” are separate entries in the source; they are usually repeats but may differ in a detail not shown here. Identical values can stand only once. Records with an inconclusive call do not appear.

Tested on: BDF1 mice, colon carcinoma 38 sc, T/C %
Assay: NCI In Vivo Anticancer Drug Screen. Data for tumor model Colon Carcinoma 38 (subcutaneous) in B6D2F1 (BDF1) mice
Details: endpoint: median tumor weight (est.), higher = larger tumour
Procedure, shortened: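 Transplantable tumor in mice; compound-treated vs vehicle-dosed controls. Measured survival or tumor size; value = T ÷ C.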

[1] = dose: 0.25 mg/kg/injection, schedule: Q07DX002 (ip), vehicle: saline + alcohol
[2] = dose: 0.5 mg/kg/injection, schedule: Q07DX002 (ip), vehicle: saline + alcohol
[3] = dose: 1.0 mg/kg/injection, schedule: Q07DX002 (ip), vehicle: saline + alcohol
[4] = dose: 50.0 mg/kg/injection, schedule: Q07DX002 (ip), vehicle: Klucel (hydroxypropylcellulose) (HPC)
[5] = dose: 100.0 mg/kg/injection, schedule: Q07DX002 (ip), vehicle: Klucel (hydroxypropylcellulose) (HPC)
[6] = dose: 200.0 mg/kg/injection, schedule: Q07DX002 (ip), vehicle: Klucel (hydroxypropylcellulose) (HPC)
[7] = dose: 400.0 mg/kg/injection, schedule: Q07DX002 (ip), vehicle: Klucel (hydroxypropylcellulose) (HPC)

Nc1nccc2c1ncn2C1OC(CO)C(O)C1O (stereo not drawn) was tested, and the T/C (dose: 4.6 mg/kg/injection, schedule: Q03HX024 (ip), vehicle: saline with Tween-80) was 103 % of control, the T/C (dose: 9.3 mg/kg/injection, schedule: Q03HX024 (ip), vehicle: saline with Tween-80) was 114 % of control and the T/C (dose: 18.7 mg/kg/injection, schedule: Q03HX024 (ip), vehicle: saline with Tween-80) was 82 % of control and 92 % of control. For the same compound, the T/C (dose: 75.0 mg/kg/injection, schedule: Q03HX024 (ip), vehicle: saline with Tween-80) was 93 % of control.
With c1ccc([P+](c2ccccc2)(c2ccccc2)c2ccccc2)cc1 the T/C (dose: 0.75 mg/kg/injection, schedule: Q07DX002 (ip), vehicle: saline) was 91 % of control, the T/C (dose: 0.75 mg/kg/injection, schedule: Q07DX003 (ip), vehicle: saline) was 84 % of control and the T/C (dose: 1.5 mg/kg/injection, schedule: Q07DX002 (ip), vehicle: saline) was 95 % of control. For the same compound, the T/C (dose: 1.5 mg/kg/injection, schedule: Q07DX003 (ip), vehicle: saline) was 83 % of control, the T/C (dose: 3.0 mg/kg/injection, schedule: Q07DX002 (ip), vehicle: saline) was 77 % of control and the T/C (dose: 3.0 mg/kg/injection, schedule: Q07DX003 (ip), vehicle: saline) was 69 % of control. The T/C (dose: 6.0 mg/kg/injection, schedule: Q07DX002 (ip), vehicle: saline) was 112 % of control and the T/C (dose: 6.0 mg/kg/injection, schedule: Q07DX003 (ip), vehicle: saline) was 66 % of control.
COc1cccc2c1C(=O)c1c(O)c3c(c(O)c1C2=O)CC(O)(/C(C)=N/NC(=O)CCCCC(=O)N/N=C(\C)C1(O)Cc2c(O)c4c(c(O)c2C(OC2CC(N)C(O)C(C)O2)C1)C(=O)c1c(OC)cccc1C4=O)CC3OC1CC(N)C(O)C(C)O1 (stereo not drawn) was tested, and the T/C (dose: 6.25 mg/kg/injection, schedule: Q07DX002 (ip), vehicle: saline) was 46 % of control, the T/C (dose: 6.25 mg/kg/injection, schedule: Q07DX002 (ip), vehicle: water) was 68 % of control and the T/C (dose: 12.5 mg/kg/injection, schedule: Q07DX002 (ip), vehicle: saline) was 32 % of control. For the same compound, the T/C (dose: 12.5 mg/kg/injection, schedule: Q07DX002 (ip), vehicle: water) was 21 % of control.
Cc1ccc(-c2cc(=O)c3cccc(CC(=O)O)c3o2)cc1 was tested, and the T/C (dose: 100.0 mg/kg/injection, schedule: Q07DX002 (ip), vehicle: saline with Tween-80) was 83 % of control and the T/C (dose: 200.0 mg/kg/injection, schedule: Q07DX002 (ip), vehicle: saline with Tween-80) was 50 % of control.
In the case of NS(=O)(=O)c1cc2c(cc1Cl)NC=NS2(=O)=O, the T/C (dose: 75.0 mg/kg/injection, schedule: Q07DX002 (ip), vehicle: Klucel (hydroxypropylcellulose) (HPC)) is reported as 120 % of control, the T/C (dose: 150.0 mg/kg/injection, schedule: Q07DX002 (ip), vehicle: Klucel (hydroxypropylcellulose) (HPC)) is reported as 113 % of control and the T/C (dose: 300.0 mg/kg/injection, schedule: Q07DX002 (ip), vehicle: Klucel (hydroxypropylcellulose) (HPC)) is reported as 90 % of control. For the same compound, the T/C (dose: 1200.0 mg/kg/injection, schedule: Q07DX002 (ip), vehicle: Klucel (hydroxypropylcellulose) (HPC)) was 60 % of control.
In the case of CC1(O)C=CC(=O)C=C1, the T/C (dose: 50.0 mg/kg/injection, schedule: Q07DX002 (ip), vehicle: water) is reported as 114 % of control.
CCC(C)(OC(C)=O)C(=O)OC1C(=O)OC2CC3C(C)=CC(O)C(O)C3(C)C3C4(O)OCC23C1C(C)C4O (stereo not drawn) was tested, and the T/C (dose: 0.12 mg/kg/injection, schedule: Q07DX002 (ip), vehicle: saline + alcohol) was 80 % of control, the T/C [1] was 48 % of control and the T/C [2] was 79 % of control. The T/C [3] was 43 % of control, the T/C (dose: 2.0 mg/kg/injection, schedule: Q07DX002 (ip), vehicle: saline + alcohol) was 75 % of control and the T/C (dose: 4.0 mg/kg/injection, schedule: Q07DX002 (ip), vehicle: saline + alcohol) was 105 % of control.
With CC[C@](C)(O)C(=O)O[C@H]1C(=O)O[C@@H]2C[C@H]3C(C)=CC(=O)[C@@H](O)[C@]3(C)[C@H]3[C@@]4(O)OC[C@]32[C@@H]1[C@@H](C)[C@H]4O the T/C (dose: 0.13 mg/kg/injection, schedule: Q07DX002 (ip), vehicle: saline with Tween-80) was 91 % of control, the T/C (dose: 0.25 mg/kg/injection, schedule: Q07DX002 (ip), vehicle: saline with Tween-80) was 90 % of control and the T/C (dose: 0.5 mg/kg/injection, schedule: Q07DX002 (ip), vehicle: saline with Tween-80) was 60 % of control. The T/C (dose: 1.0 mg/kg/injection, schedule: Q07DX002 (ip), vehicle: saline with Tween-80) was 62 % of control and the T/C (dose: 2.0 mg/kg/injection, schedule: Q07DX002 (ip), vehicle: saline with Tween-80) was 47 % of control.
For CN(C)C(=O)SC1=C(c2c(Cl)cccc2Cl)C(=O)c2ccccc21, the T/C [4] was 76 % of control, the T/C [5] was 94 % of control and the T/C [6] was 86 % of control. The T/C [7] was 82 % of control and the T/C (dose: 800.0 mg/kg/injection, schedule: Q07DX002 (ip), vehicle: Klucel (hydroxypropylcellulose) (HPC)) was 91 % of control.
For OC(C1CO1)C(O)C1CO1 (stereo not drawn), the T/C (dose: 1.0 mg/kg/injection, schedule: Q07DX002 (ip), vehicle: saline) was 83 % of control, the T/C (dose: 1.0 mg/kg/injection, schedule: Q07DX003 (ip), vehicle: saline) was 71 % of control and 81 % of control and the T/C (dose: 2.0 mg/kg/injection, schedule: Q07DX002 (ip), vehicle: saline) was 114 % of control. For the same compound, the T/C (dose: 2.0 mg/kg/injection, schedule: Q07DX003 (ip), vehicle: saline) was 70 % of control and 86 % of control, the T/C (dose: 4.0 mg/kg/injection, schedule: Q07DX003 (ip), vehicle: saline) was 5 % of control and 30 % of control and the T/C (dose: 8.0 mg/kg/injection, schedule: Q07DX002 (ip), vehicle: saline) was 58 % of control. The T/C (dose: 8.0 mg/kg/injection, schedule: Q07DX003 (ip), vehicle: saline) was 8 % of control and 20 % of control.
CC[C@H]1CN2CCc3cc(OC)c(OC)cc3[C@@H]2C[C@@H]1C[C@H]1NCCc2cc(O)c(OC)cc21 was tested, and the T/C (dose: 3.0 mg/kg/injection, schedule: Q07DX002 (ip), vehicle: suspension in saline) was 101 % of control, the T/C (dose: 6.0 mg/kg/injection, schedule: Q07DX002 (ip), vehicle: suspension in saline) was 110 % of control and the T/C (dose: 12.0 mg/kg/injection, schedule: Q07DX002 (ip), vehicle: suspension in saline) was 98 % of control. For the same compound, the T/C (dose: 24.0 mg/kg/injection, schedule: Q07DX002 (ip), vehicle: suspension in saline) was 89 % of control.
In the case of O=c1[nH]cnc2n[nH]nc12, the T/C (dose: 12.5 mg/kg/injection, schedule: Q07DX002 (ip), vehicle: Klucel (hydroxypropylcellulose) (HPC)) is reported as 122 % of control, the T/C (dose: 25.0 mg/kg/injection, schedule: Q07DX002 (ip), vehicle: Klucel (hydroxypropylcellulose) (HPC)) is reported as 110 % of control and the T/C [4] is reported as 100 % of control. The T/C [5] was 87 % of control, the T/C [6] was 77 % of control and the T/C [7] was 88 % of control.
With CC(C)[C@](O)(C(=O)OCC1=CC[N+]2([O-])CC[C@@H](O)[C@@H]12)[C@H](C)O (stereo partly drawn) the T/C (dose: 50.0 mg/kg/injection, schedule: Q07DX003 (ip), vehicle: water) was 66 % of control, the T/C (dose: 100.0 mg/kg/injection, schedule: Q07DX003 (ip), vehicle: water) was 185 % of control and the T/C (dose: 200.0 mg/kg/injection, schedule: Q07DX002 (ip), vehicle: water) was 73 % of control. For the same compound, the T/C (dose: 200.0 mg/kg/injection, schedule: Q07DX003 (ip), vehicle: water) was 123 % of control, the T/C (dose: 400.0 mg/kg/injection, schedule: Q07DX002 (ip), vehicle: water) was 92 % of control and the T/C (dose: 400.0 mg/kg/injection, schedule: Q07DX003 (ip), vehicle: water) was 71 % of control. For the same compound, the T/C (dose: 800.0 mg/kg/injection, schedule: Q07DX002 (ip), vehicle: water) was 64 % of control, the T/C (dose: 800.0 mg/kg/injection, schedule: Q07DX003 (ip), vehicle: water) was 68 % of control and the T/C (dose: 1600.0 mg/kg/injection, schedule: Q07DX002 (ip), vehicle: water) was 48 % of control.
CN(Cc1cnc2nc(N)nc(N)c2n1)c1ccc(C(=O)N[C@@H](CCC(=O)O)C(=O)O)cc1 was tested, and the T/C (dose: 1.25 mg/kg/injection, schedule: Q07DX002 (ip), vehicle: sodium bicarbonate) was 105 % of control, the T/C (dose: 2.5 mg/kg/injection, schedule: Q07DX002 (ip), vehicle: sodium bicarbonate) was 167 % of control and 170 % of control and the T/C (dose: 5.0 mg/kg/injection, schedule: Q07DX002 (ip), vehicle: sodium bicarbonate) was 122 % of control. For the same compound, the T/C (dose: 10.0 mg/kg/injection, schedule: Q07DX002 (ip), vehicle: sodium bicarbonate) was 111 % of control and the T/C (dose: 20.0 mg/kg/injection, schedule: Q07DX002 (ip), vehicle: sodium bicarbonate) was 115 % of control and 117 % of control.
In the case of CCCC(=O)O.CCCC(=O)O.CCCC(=O)O.CCCC(=O)O.[Rh].[Rh], the T/C [1] is reported as 87 % of control, the T/C [2] is reported as 76 % of control and the T/C [3] is reported as 91 % of control.
